According to ChEMBL document CHEMBL1201862, “PubChem BioAssay data set” (2004):
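A five-concentration, 48-hour dose response in 96-well plates underlies each endpoint, interpolated linearly between surrounding concentrations. GI50 marks 50% less growth.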 Activity calls are given as the source filed them. No stated cut-off is given here; in the data, active = GI50 up to about 1.1 µM and inactive = higher.

Legend:
Test in all cases: NCI anticancer screen, dose series, 48 h
LOX IMVI = tested on: LOX IMVI
RPMI-8226 = tested on: RPMI-8226
HCC 2998 = tested on: HCC 2998
HOP-62 = tested on: HOP-62
M19-MEL = tested on: M19-MEL
NCI-H23 = tested on: NCI-H23
HCT-116 = tested on: HCT-116
SNB-75 = tested on: SNB-75
NCI-H460 = tested on: NCI-H460
U-251 = tested on: U-251
OVCAR-5 = tested on: OVCAR-5
SF-539 = tested on: SF-539
OVCAR-8 = tested on: OVCAR-8
SN12C = tested on: SN12C
SF-268 = tested on: SF-268
HL-60 = tested on: HL-60
RXF 393 = tested on: RXF 393
SR = tested on: SR

Measured: GI50

C1CSCCSCCCS[C@@H]2CCCCC2SC1 (stereo not given in full)
inactive: LOX IMVI 24.2 µM | RPMI-8226 21 µM | HCC 2998 > 100 µM | HOP-62 > 100 µM | M19-MEL > 100 µM | NCI-H23 > 100 µM | HCT-116 > 100 µM | SNB-75 > 100 µM | NCI-H460 44.1 µM | U-251 > 100 µM | OVCAR-5 > 100 µM | SF-539 > 100 µM | OVCAR-8 > 100 µM | SN12C 72.4 µM | SF-268 > 100 µM | HL-60 44.3 µM | RXF 393 > 100 µM

COc1cc(CNc2nc3ccc(C(F)(F)F)cc3nc2-c2ccccc2)cc(OC)c1OC
inactive: LOX IMVI 32.1 µM | RPMI-8226 6.11 µM | HCC 2998 38.8 µM | HOP-62 76.6 µM | M19-MEL 46.2 µM | NCI-H23 27.9 µM | HCT-116 15.4 µM | SNB-75 8.38 µM | NCI-H460 34.1 µM | U-251 44.5 µM | OVCAR-5 > 100 µM | SF-539 46.7 µM | OVCAR-8 47.5 µM | SN12C 29.6 µM | SF-268 19.5 µM | HL-60 5.55 µM

COc1ccc2c(c1)C(CCN)C(=O)N2 (stereo not given)
inactive: LOX IMVI > 100 µM | RPMI-8226 > 100 µM | HCC 2998 > 100 µM | HOP-62 > 100 µM | M19-MEL > 100 µM | NCI-H23 > 100 µM | HCT-116 > 100 µM | SNB-75 > 100 µM | NCI-H460 > 100 µM | U-251 > 100 µM | OVCAR-5 > 100 µM | SF-539 > 100 µM | OVCAR-8 > 100 µM | SF-268 > 100 µM | HL-60 > 100 µM

CN1CC(=O)N2Cc3ccccc3-n3cccc3C2C1 (stereo not given)
inactive: LOX IMVI > 100 µM | HCC 2998 > 100 µM | HOP-62 > 100 µM | M19-MEL > 100 µM | NCI-H23 > 100 µM | HCT-116 > 100 µM | SNB-75 > 100 µM | NCI-H460 > 100 µM | U-251 > 100 µM | OVCAR-5 > 100 µM | SF-539 > 100 µM | OVCAR-8 > 100 µM | SN12C > 100 µM | SF-268 > 100 µM | RXF 393 > 100 µM

O=C(NCCCN1CCN(CCCNC(=O)c2cnc3ccccc3n2)CC1)c1cnc2ccccc2n1
inactive: LOX IMVI 76.6 µM | RPMI-8226 > 100 µM | HCC 2998 > 100 µM | HOP-62 > 100 µM | M19-MEL > 100 µM | HCT-116 44.8 µM | SNB-75 > 100 µM | NCI-H460 > 100 µM | U-251 > 100 µM | SF-539 > 100 µM | OVCAR-8 > 100 µM | SN12C > 100 µM | SF-268 > 100 µM | HL-60 > 100 µM | RXF 393 > 100 µM

COc1ccc(C(C#N)NNc2nc(C)cc(O)n2)cc1OC (stereo not given)
inactive: LOX IMVI > 100 µM | RPMI-8226 > 100 µM | HOP-62 > 100 µM | M19-MEL > 100 µM | NCI-H23 > 100 µM | HCT-116 > 100 µM | SNB-75 71.9 µM | SR > 100 µM | NCI-H460 > 100 µM | U-251 > 100 µM | OVCAR-5 > 100 µM | SF-539 > 100 µM | OVCAR-8 > 100 µM | SN12C > 100 µM | SF-268 > 100 µM | HL-60 > 100 µM | RXF 393 > 100 µM

COc1cc(Br)c(C2OCCCO2)cc1OCc1ccccc1
inactive: LOX IMVI 78.3 µM | RPMI-8226 52.8 µM | HOP-62 > 100 µM | M19-MEL > 100 µM | NCI-H23 85.5 µM | HCT-116 39.7 µM | SNB-75 > 100 µM | NCI-H460 55.7 µM | U-251 > 100 µM | OVCAR-5 > 100 µM | SF-539 73.1 µM | OVCAR-8 > 100 µM | SN12C > 100 µM | SF-268 39 µM | HL-60 38.5 µM | RXF 393 64 µM

CC(=O)OCC(OC(C)=O)C(OC(C)=O)C(OC(C)=O)C(=O)CNn1c(-c2ccccc2)nc2ccc(Br)cc2c1=O (stereo not given)
inactive: LOX IMVI > 100 µM | RPMI-8226 64.9 µM | HOP-62 > 100 µM | M19-MEL > 100 µM | NCI-H23 > 100 µM | HCT-116 > 100 µM | SNB-75 > 100 µM | SR > 100 µM | NCI-H460 > 100 µM | U-251 > 100 µM | OVCAR-5 > 100 µM | SF-539 > 100 µM | OVCAR-8 > 100 µM | SN12C > 100 µM | SF-268 > 100 µM | HL-60 > 100 µM | RXF 393 > 100 µM

CC(=O)O[C@H]1CCC2[C@@H]3CCC4Nc5c(cnn5-c5ccccc5)C[C@]4(C)C3CC[C@@]21C (stereo not given in full)
inactive: LOX IMVI 12.8 µM | RPMI-8226 4.2 µM | HCC 2998 9.55 µM | HOP-62 18.3 µM | M19-MEL 11.7 µM | NCI-H23 4.83 µM | HCT-116 14.3 µM | SNB-75 4.01 µM | NCI-H460 15.8 µM | U-251 17.9 µM | OVCAR-5 17.4 µM | SF-539 17.5 µM | OVCAR-8 18.2 µM | SN12C 19.1 µM | SF-268 32.5 µM | HL-60 7.64 µM | RXF 393 5.65 µM
